Measurements as given in publication PMC6792352, “Limited Chemical Structural Diversity Found to Modulate Thyroid Hormone Receptor in the Tox21 Chemical Library” (Environmental Health Perspectives, 2019).
Read-outs that look alike come from different tables or passages of the source.

Columns and labels:
[1] = target: T1, human RXRα (Homo sapiens, UniProt P19793); assay: RXRa-bla-Ag mammalian one-hybrid beta-lactamase assay (TOX21_TR_RXR_BLA_Agonist_Followup_ratio, aeid 2253); type: cell-based; details: for tr-followup-rxr-bla-agonist-1 hitc: hit call from tcpl; for Emax: read-out: EMax (% of Control) tr-followup-rxr-bla-agonist-1
T1 construct: host or cells: GeneBLAzer UAS-bla HEK 293T
T1 sequence (P19793 227-458 limits assumed): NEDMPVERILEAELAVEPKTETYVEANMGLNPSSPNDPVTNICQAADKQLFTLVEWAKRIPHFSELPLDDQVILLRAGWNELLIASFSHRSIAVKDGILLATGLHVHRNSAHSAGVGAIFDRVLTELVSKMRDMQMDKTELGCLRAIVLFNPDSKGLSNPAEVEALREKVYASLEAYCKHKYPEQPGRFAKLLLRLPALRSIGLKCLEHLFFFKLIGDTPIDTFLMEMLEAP

[2] = test system: thyroid hormone receptor (endogenous TRα and TRβ); assay: GH3-TRE-Ag-Followup confirmation (TOX21_TR_LUC_GH3_Agonist_Followup, aeid 2226); type: cell-based, rat; details: for GH3-TRE-Ag-Followup hitc: hit call from tcpl; for AC50: read-out: GH3-TRE-Ag-Followup AC50
[3] = test system: Tox21 cell viability assays (different cell types); assay: Global cytotoxicity: eighteen Tox21 cell viability assays; type: cell-based
[4] = test system: GH3-TRE-Luc cell line; assay: GH3-TRE-Via cell viability, CellTiter-Fluor (TOX21_TR_LUC_GH3_Antagonist_viability, aeid 805); details: for TR_LUC_GH3_Antagonist_viability hitc: hit call from tcpl
[5] = test system: thyroid hormone receptor (endogenous TRα and TRβ); assay: GH3-TRE-Ag primary qHTS, luciferase reporter, agonist mode (TOX21_TR_LUC_GH3_Agonist, aeid 803); type: cell-based, rat; details: for GH3-TRE-Ag AC50 hitc: hit call from tcpl
[6] = target: T2, human TRβ ligand-binding domain (Homo sapiens, UniProt P10828); assay: TRb-bla agonist mammalian one-hybrid beta-lactamase assay (TOX21_TRB_BLA_Agonist_Followup_ratio, aeid 2236); type: cell-based; set-up: host or cells: GeneBLAzer UAS-bla HEK 293T; details: for TRb-bla hitc: hit call from tcpl; for TRb-bla hitc / AC50: agonist; for AC50: read-out: TRb-bla AC50; for Emax: read-out: EMax (% of Control) trb-bla-agonist-followup-1
T2 sequence (P10828 217-461 limits assumed): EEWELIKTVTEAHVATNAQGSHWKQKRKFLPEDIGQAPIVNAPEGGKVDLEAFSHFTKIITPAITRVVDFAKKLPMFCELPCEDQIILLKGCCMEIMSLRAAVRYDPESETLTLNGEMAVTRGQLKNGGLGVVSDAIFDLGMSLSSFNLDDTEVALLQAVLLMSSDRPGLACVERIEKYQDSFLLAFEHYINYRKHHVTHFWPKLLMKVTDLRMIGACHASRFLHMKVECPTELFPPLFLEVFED

[7] = target: T3, TRα ligand-binding domain (Homo sapiens, UniProt P10827); assay: TRa-coa LanthaScreen TR-FRET coactivator (SRC-2 peptide) recruitment, agonist (TOX21_TRA_COA_Agonist_Followup_ratio, aeid 2230); type: biochemical; details: for TRa-coa hitc: hit call from tcpl; for Emax: read-out: EMax (% of Control) tra-coa-agonist-followup-1
T3 construct: the receptor LBDs expressed as glutathione S-transferase (GST) fusion proteins; purchased

[8] = test system: GH3-TRE-Luc cell line
[9] = test system: thyroid hormone receptor (TR); assay: Classification of TR actives across characterization assays (TR-Ag / RXR-Ag; TR model binary); set-up: key to Categorization Code: FP, false positive; details: for Categorization Code: TR agonist characterization; for Classification: TR-Ag = TR agonist, RXR-Ag = RXR agonist
Description: Active rate comparison between receptors. […]; [Kleinstreuer et al. 2017]). We first removed chemicals classified as pharmaceuticals because these sets of chemicals are biased toward drugs targeting estrogen receptors and androgen receptors. […]. For TR, we cross-referenced these same chemicals for testing against TR and used candidate chemicals in Tables 2 and 3 to define active rates.
Complete results from both GH3-TRE qHTS agonist, antagonist, and viability mode for the 8,305 compounds are provided in Excel Table S2. […]. […]. Together with some potential false negatives, these chemicals, totaling 84 in all, were screened for activity in a series of assays for confirmation in the GH3-TRE-Ag assay; specificity screening in the TRβ-UAS-bla HEK 293T and RXRα-UAS-bla HEK 293T mammalian one-hybrid assays; viability assays for the HEK293T parental cell line; and orthogonal screening in two TR:coactivator recruitment assays, TRa-coa and TRb-coa. […].

[10] = target: T2, human TRβ ligand-binding domain; assay: TRb-coa LanthaScreen TR-FRET coactivator (SRC-2 peptide) recruitment, agonist (TOX21_TRB_COA_Agonist_Followup_ratio, aeid 2244); type: biochemical; set-up: host or cells: GeneBLAzer UAS-bla HEK 293T; details: for TRb-coa hitc: hit call from tcpl; for TRb-coa hitc / AC50: agonist; for AC50: read-out: TRb-coa AC50; for Emax: read-out: EMax (% of Control) trb-coa-agonist-followup-1
[11] = in vitro; details: rat, gh3-tre-luc cells
[12] = read-out: tr-followup-rxr-bla-agonist-1 AC50
[13] = read-out: TR_LUC_GH3_Antagonist_viability AC50
[14] = # active of 18 total Tox21 viability assays
[15] = median over Tox21 viability assays
[16] = agonist, read-out: TRa-coa AC50
[17] = Rattus norvegicus, read-out: TR_LUC_GH3_Antagonist_viability AC50 (uM)

T3 sequence (P10827 163-410 isoform P10827-2 limits assumed, other chains not shown): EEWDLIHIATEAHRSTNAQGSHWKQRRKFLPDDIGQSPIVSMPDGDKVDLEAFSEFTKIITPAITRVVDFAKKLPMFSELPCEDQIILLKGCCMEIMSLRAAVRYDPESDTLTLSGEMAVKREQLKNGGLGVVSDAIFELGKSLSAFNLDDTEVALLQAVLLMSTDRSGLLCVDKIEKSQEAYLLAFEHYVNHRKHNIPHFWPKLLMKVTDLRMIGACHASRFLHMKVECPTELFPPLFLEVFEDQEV

SMILES	EMax (% of Control) tr-followup-rxr-bla-agonist-1 [1]	tr-followup-rxr-bla-agonist-1 hitc [1]	AC50 [1, 12] [µM]	EMax (% of Control) gh3-tre-agonist-followup-1_agonist [2]	GH3-TRE-Ag-Followup hitc [2]	AC50 [2] [nM]	GLOBAL CYTOTOXICITY cytotox.median [3]	GLOBAL CYTOTOXICITY cytotox.number_Active [3]	EMax (% of Control) gh3-tre-agonist [5]	GH3-TRE-Ag AC50 hitc [5]	TRb-bla hitc [6]	EMax (% of Control) tra-coa-agonist-followup-1 [7]	TRa-coa hitc ([7]; agonist)	TR_LUC_GH3_Antagonist_viability hitc [8]	Categorization Code [9]	TRb-coa hitc [10]	AC50 [6] [µM]	AC50 [7, 16] [µM]	AC50 [10] [µM]	Emax [1] [%]	other results
N[C@@H](Cc1ccc(Oc2cc(I)c(O)c(I)c2)c(I)c1)C(=O)O [3,3',5'-Triiodo-L-thyronine]	17.4 % of Control	0	> 92	87.2 % of Control	1	537	>92	0	111.6 % of Control	1	1	152.6 % of Control	1	0	TR-Ag	1	–	–	–	–	AC50 [4, 13]: > 92 µM; EMax (% of Control) trb-bla-agonist-followup-1 [6]: 93.8 % of Control; EMax (% of Control) trb-coa-agonist-followup-1 [10]: 117.6 % of Control
CC(C)(c1ccccc1)c1ccc(O)c(C(C)(C)c2ccccc2)c1 [2,4-Bis(1-methyl-1-phenylethyl)phenol]	12.1 % of Control	0	> 92	33.5 % of Control	1	5350	–	–	22.3 % of Control	0	0	9.2 % of Control	0	–	FP	0	> 92	> 92	> 92	–	GLOBAL CYTOTOXICITY cytotox.number_Active [3, 14]: 17; GLOBAL CYTOTOXICITY cytotox.median [3, 15]: 24.3; TR_LUC_GH3_Antagonist_viability hitc [4]: 1; AC50 [4, 13]: 11.2 µM; CC50 at 24 h ([11]; AC50 (uM) modified / 1000, Tox21_110001=Tox21_202456, viability, 1 nM T3 present, 24 h): 13.3 µM; CC50 at 24 h ([11]; AC50 (uM) modified / 1000, Tox21_110001=Tox21_300317, viability, 1 nM T3 present, 24 h): 11.2 µM; EMax (% of Control) trb-coa-agonist-followup-1 [10]: 13.4 % of Control
C[C@H](CCC(=O)NCC(=O)O)[C@H]1CC[C@H]2[C@@H]3[C@H](O)C[C@@H]4C[C@H](O)CC[C@]4(C)[C@H]3C[C@H](O)[C@]12C [glycocholic acid]	–	0	> 92	34.6 % of Control	0	–	–	0	27.2 % of Control	1	0	–	0	–	Equivocal RXR-Ag	0	> 92	> 92	> 92	-1.3	GLOBAL CYTOTOXICITY cytotox.median [3, 15]: >92; AC50 [4, 17]: > 92 µM; activity in GH3-TRE agonist assay [5]: active; Emax [6]: 14.8%; Emax [7]: -0.137%; TR_LUC_GH3_Antagonist_viability hitc ([8]; rat, 24 h): 0; Emax [10]: -0.225%
N[C@@H](Cc1cc(I)c(Oc2ccc(O)c(I)c2)c(I)c1)C(=O)[O-].[Na+] [3,3ʹ,5-Triiodo-L-thyronine sodium salt, reference compound]	–	–	–	96.5 % of Control	1	–	>92	0	–	1	–	–	–	0	TR-Ag	–	–	–	–	–	AC50 [3]: > 92 µM; TR_LUC_GH3_Agonist_EMAX (% Control) ([5]; Table S5): 108.5 % Control; AC50 [8]: > 92 µM; Classification [9]: TR-Ag
Cc1cc(NC(=O)C(=O)O)cc(C)c1Oc1ccc(O)c2c1CCC2 [CP-634384, reference compound]	54.9 % of Control	1	–	103.7 % of Control	1	–	>92	0	129.5 % of Control	1	–	158.4 % of Control	1	0	TR-Ag	–	–	–	–	–	AC50 ([1]; HEK 293T one-hybrid, agonist mode, inactive set to 1,000, read-out: RXRa-bla-Ag AC50): 44.3 µM; AC50 ([2]; confirmation, agonist mode): 18 nM; AC50 [3]: > 92 µM; AC50 ([7]; cell-free coactivator recruitment, read-out: TRa-coa-Ag AC50): 0.0029 µM; AC50 [8]: > 92 µM; Classification [9]: TR-Ag
C=C(NC(=O)C(=C)NC(=O)c1csc(C2=N[C@@H]3c4csc(n4)[C@H]4NC(=O)c5csc(n5)[C@H]([C@](C)(O)[C@@H](C)O)NC(=O)[C@H]5CSC(=N5)/C(=C/C)NC(=O)[C@H]([C@@H](C)O)NC(=O)c5csc(n5)[C@]3(CC2)NC(=O)[C@H](C)NC(=O)C(=C)NC(=O)[C@H](C)NC(=O)[C@H]([C@@H](C)CC)N[C@@H]2C=Cc3c([C@H](C)O)cc(nc3[C@H]2O)C(=O)O[C@@H]4C)n1)C(N)=O [Thiostrepton]	–	0	> 92	28.2 % of Control	1	5470	>92	–	15.2 % of Control	0	0	–	0	–	About 20% efficacy in RXR and TR; hitc is inconsistent; promiscious NR activity	0	> 92	> 92	> 92	17.2	GLOBAL CYTOTOXICITY cytotox.number_Active [3, 14]: 0; AC50 [4, 17]: > 92 µM; TR_LUC_GH3_Antagonist_viability hitc [4]: 0; Emax [6]: 4.1%; Emax [7]: -0.6%; CC50 at 24 h ([11]; AC50 (uM) modified / 1000): 6.56 µM; Emax [10]: -0.224%
CCCCc1oc2ccccc2c1C(=O)c1cc(I)c(OCCN(CC)CC)c(I)c1 [amiodarone]	–	–	–	–	–	–	–	–	–	–	–	–	–	–	–	–	–	–	–	–	cytotoxicity in GH3 viability assay [8]: cytotoxic at the concentrations at which it inhibits TR
Nc1ccc(S(=O)(=O)Nc2nccs2)cc1 [Sulfathiazole]	–	0	> 92	19.5 % of Control	0	–	>92	0	1.9 % of Control	0	–	–	–	–	FP	–	–	–	–	30	AC50 [4, 17]: > 92 µM; AC50 ([5]; read-out: GH3-TRE-Ag AC50): > 92 µM; CC50 at 24 h ([11]; AC50 (uM) modified / 1000): > 50 µM; TR_LUC_GH3_Antagonist_viability hitc ([8]; rat, 24 h): 0
